Laboratory results taken from US20020086885A1, “Pharmaceutical composition” (priority 1998, published 2002).
Counter-ions that a name gives are not always drawn.

Key:
[1] = test system: obese, diabetic KKA^y mice; conditions: cited from earlier work
obese rats = conditions: given together with troglitazone; cited from earlier work
[2] = test system: noninsulin-dependent diabetic mellitus (NIDDM) patients; assay: Concomitant administration of pioglitazone hydrochloride and mazindol in NIDDM patients; type: in vivo, human
From the text: Effects of concomitant administration of pioglitazone hydrochloride and mazindol in noninsulin-dependent diabetic mellitus (NIDDM) patients were studied.

N=C(N)NCCC(=O)O [3-Guanidinopropionic acid]
weight gain in mice treated with pioglitazone hydrochloride [1]: antagonizes in a dose-dependent manner

C[C@H](Cc1ccc2c(c1)OC(C(=O)[O-])(C(=O)[O-])O2)NC[C@H](O)c1cccc(Cl)c1.[Na+].[Na+] [CL316243]
weight gain in brown adipose tissues caused by troglitazone (obese rats): completely inhibited

OC1(c2ccc(Cl)cc2)c2ccccc2C2=NCCN21 (stereo not shown) [mazindol]
body weight change ([2]; one NIDDM patient, mazindol 0.5 mg/day oral with placebo, 12 weeks, baseline 60.0 kg): 0.00 kg

CCc1ccc(CCOc2ccc(CC3SC(=O)NC3=O)cc2)nc1 (stereo not shown) [pioglitazone hydrochloride, 5-[4-[2-(5-ethyl-2-pyridyl)ethoxy]benzyl]-2,4-thiazolidinedione]
body weight increased by ([2]; NIDDM patients, pioglitazone hydrochloride alone 45 mg/day oral, 12±2 weeks, means±standard deviation of 50 samples): 0.72 ± 2.06 kg
